According to US20150087657A1, “MULTICOMPONENT CRYSTALLINE SYSTEM OF VORICONAZOLE WITH FUMARIC ACID” (BASF SE, priority 2011, published 2015):
In brackets after ≈: the same amount, converted by molar mass.

Assay: Solubility determination of vrx and vrx-co-crystals in water
Assay type: physicochemical
Conditions: 37° C.
Protocol: Solubility determinations of the vrx (free drug substance), the vrx-fumaric acid co-crystal and the vrx-L-tartaric acid co-crystal described in the below comparative example are carried out as follows. To 20 mg of a solid sample, 5.0 ml water is added and the mixture is placed on a laboratory shaker at 500 rpm at 37° C. After 24 hours, a small sample of about 1.0 ml is recovered with a syringe and filtered through a 0.1 micrometer PVDF Millipore filtration unit. This sample is appropriately diluted and the concentration is determined by HPLC.

Structure (SMILES)	aqueous solubility higher than the free drug substance and the L-tartaric acid co-crystal (24 h, relative to table 4 comparators)	Solubility of Voriconazole (equilibration time 24 h, 20 mg solid in 5.0 ml, HPLC, value refers to Voriconazole) [µg/mL]	solubility at 24 h (thermodynamic from solid, equilibration time 24 h, 20 mg solid in 5.0 ml, HPLC, value refers to Voriconazole) [µg/mL]
CC(c1ncncc1F)C(O)(Cn1cncn1)c1ccc(F)cc1F.O=C(O)C=CC(=O)O (stereo not drawn) [Co-crystal with fumaric acid]	about 30%	1300	
C[C@@H](c1ncncc1F)[C@](O)(Cn1cncn1)c1ccc(F)cc1F [Voriconazole free drug, (2R,3S)-2-(2,4-difluorophenyl)-3-(5-fluoropyrimidin-4-yl)-1-(1H-1,2,4-triazol-1-yl)butan-2-ol, reference compound]			1010 (≈ 2890 µM)
